Measurements: PMC12664493, “Asparagine endopeptidase (AEP) inhibitor formulation via zein-based nanoparticle improves the therapeutic efficacy toward Alzheimer's disease” (Neurotherapeutics, 2025)

Tests used:
[1] = system: Aβ plaques; assay: Aβ PET (18F-AV45) in 3xTg mice after chronic treatment; type: in vivo, mouse; conditions: 7.5 mg/kg P.O. daily, one month
Text: Blood and brain tissues were collected at 0, 0.08, 0.25, 0.5, 1, 2, 4, and 8 h post-administration. For acute pharmacodynamic (PD) assessments, male and female 3xTg mice received oral doses of NP-11a-isopropyl at 7.5 mg/kg or 15 mg/kg, and blood and brain samples were collected 2 h after treatment.
Mice were maintained under isoflurane inhalation anesthesia during all procedures to ensure stable physiological conditions for radiochemical administration, imaging, and data processing. PET imaging was conducted using a high-resolution small-animal scanner (microPET; spatial resolution: 1.0 mm). Following intravenous administration of 10–15 MBq of ^18F-florbetapir (AV45) in 100 μL saline via the tail vein, 20-min volumetric brain emission scans were acquired. Image reconstruction was performed using ordered-subset expectation maximization (OSEM) to optimize spatial resolution and signal-to-noise ratios. For quantitative analysis, standardized uptake value ratios (SUVRs) were calculated by normalizing 18F-AV45 uptake in target regions to the cerebellar reference tissue. A predefined volumetric region of interest (VOI) template was applied to ensure consistent anatomical localization across subjects. SUVR data were statistically analyzed using Amide 1.0.4–1 (San Diego, CA, USA), with results reported for cortical and subcortical regions implicated in amyloid pathology.

[2] = Stability in human plasma; type: in vitro ADME; conditions: read-out: Stability-Plasma T1/2
[3] = Caco-2 permeability; type: in vitro ADME; conditions: human
[4] = target: T1, AEP (Rattus norvegicus, UniProt Q9R0J8); assay: Titration assay of Aβ42-induced AEP activation in primary neurons (immunoblotting); type: cell-based; conditions: 2 μM pre-aggregated Aβ42, 24 h
T1 construct: endogenous in cells; host or cells: primary rat cortical neurons
T1 sequence (Q9R0J8 18-435): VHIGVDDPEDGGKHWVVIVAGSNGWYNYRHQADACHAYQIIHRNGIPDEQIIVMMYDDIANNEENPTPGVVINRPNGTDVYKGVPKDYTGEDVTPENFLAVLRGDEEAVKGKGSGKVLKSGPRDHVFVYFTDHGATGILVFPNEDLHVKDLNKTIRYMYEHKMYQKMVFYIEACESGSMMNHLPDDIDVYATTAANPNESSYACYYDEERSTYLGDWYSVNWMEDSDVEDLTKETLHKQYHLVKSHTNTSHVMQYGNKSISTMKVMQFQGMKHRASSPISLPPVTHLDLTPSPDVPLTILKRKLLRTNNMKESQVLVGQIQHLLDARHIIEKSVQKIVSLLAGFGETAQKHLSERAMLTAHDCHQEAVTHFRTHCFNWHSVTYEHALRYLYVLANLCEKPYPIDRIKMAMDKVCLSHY

[5] = system: Aβ42; assay: Aβ ELISA of brain tissue of 3xTg mice; type: in vivo, mouse; conditions: 7.5 mg/kg P.O. daily, one month
[6] = Plasma protein binding, mouse; type: in vitro ADME
[7] = target: T2, AEP (Mus musculus, UniProt O89017); assay: Acute PD in 3xTg mice: brain AEP enzymatic activity and immunoblotting; type: in vivo; conditions: 2 h
T2 construct: from tissue; host or cells: brain / hippocampus of 3xTg mice
T2 sequence (O89017 18-435): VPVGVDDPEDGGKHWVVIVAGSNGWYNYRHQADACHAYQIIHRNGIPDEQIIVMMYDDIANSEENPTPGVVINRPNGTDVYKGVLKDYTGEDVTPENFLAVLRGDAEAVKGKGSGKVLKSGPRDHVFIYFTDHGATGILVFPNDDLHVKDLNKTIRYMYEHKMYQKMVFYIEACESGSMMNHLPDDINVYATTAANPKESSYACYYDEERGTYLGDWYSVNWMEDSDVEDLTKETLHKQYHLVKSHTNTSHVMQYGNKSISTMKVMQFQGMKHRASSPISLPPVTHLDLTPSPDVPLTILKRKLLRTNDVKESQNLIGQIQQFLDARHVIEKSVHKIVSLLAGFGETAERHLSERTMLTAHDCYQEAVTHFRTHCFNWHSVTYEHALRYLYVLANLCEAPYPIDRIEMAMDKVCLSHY

[8] = Stability in mouse plasma; type: in vitro ADME; conditions: read-out: Stability-Plasma T1/2
[9] = target: hERG K+ channel (Homo sapiens, UniProt Q12809); assay: hERG inhibition assay
[10] = target: T1, AEP; assay: AEP inhibition in cultured primary neurons; type: cell-based
[11] = Stability in human hepatocytes; type: in vitro ADME

Chain of hERG K+ channel (Q12809 whole entry): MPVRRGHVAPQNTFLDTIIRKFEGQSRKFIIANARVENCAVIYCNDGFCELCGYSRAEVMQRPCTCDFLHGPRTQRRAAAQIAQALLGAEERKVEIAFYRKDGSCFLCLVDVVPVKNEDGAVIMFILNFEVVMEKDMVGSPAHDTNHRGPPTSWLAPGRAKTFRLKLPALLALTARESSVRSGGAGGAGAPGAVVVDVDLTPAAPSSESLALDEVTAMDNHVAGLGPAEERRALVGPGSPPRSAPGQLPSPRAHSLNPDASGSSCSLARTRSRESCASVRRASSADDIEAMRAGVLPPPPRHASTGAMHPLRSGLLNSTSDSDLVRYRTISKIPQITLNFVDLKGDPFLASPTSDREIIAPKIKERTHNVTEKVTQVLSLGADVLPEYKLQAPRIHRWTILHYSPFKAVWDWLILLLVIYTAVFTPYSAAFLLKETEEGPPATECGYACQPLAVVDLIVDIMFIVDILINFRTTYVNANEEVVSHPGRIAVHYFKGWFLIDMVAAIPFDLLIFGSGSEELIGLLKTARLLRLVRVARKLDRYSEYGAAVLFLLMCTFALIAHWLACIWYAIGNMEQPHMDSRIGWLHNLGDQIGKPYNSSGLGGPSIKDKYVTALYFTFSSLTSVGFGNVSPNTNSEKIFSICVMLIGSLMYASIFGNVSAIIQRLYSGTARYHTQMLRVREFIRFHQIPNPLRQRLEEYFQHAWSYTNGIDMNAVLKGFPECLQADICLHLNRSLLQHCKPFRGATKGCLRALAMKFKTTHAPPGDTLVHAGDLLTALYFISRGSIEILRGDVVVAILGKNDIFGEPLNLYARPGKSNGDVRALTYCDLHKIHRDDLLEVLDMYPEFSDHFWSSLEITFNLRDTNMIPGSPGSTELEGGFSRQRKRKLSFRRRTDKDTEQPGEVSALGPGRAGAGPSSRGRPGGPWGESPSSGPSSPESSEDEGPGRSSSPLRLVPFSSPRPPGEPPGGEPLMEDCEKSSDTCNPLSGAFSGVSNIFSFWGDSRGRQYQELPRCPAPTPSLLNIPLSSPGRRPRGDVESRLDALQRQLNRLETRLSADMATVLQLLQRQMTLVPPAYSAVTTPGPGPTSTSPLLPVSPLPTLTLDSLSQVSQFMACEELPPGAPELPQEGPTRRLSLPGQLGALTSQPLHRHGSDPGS

half-life [2]: > 8 h | Papp A→B ([3]; a-b, first value of the cell): 6.34 ×10⁻⁶ cm/s | Papp B→A ([3]; value after the slash, head names only a-b, read-out: Permeability-Caco-2 Papp, second value of the cell (taken as b-a)): 23.6 ×10⁻⁶ cm/s | Plasma Protein F u, plasma(%) [6]: 20.4% | fraction unbound ([6]; plasma, as a fraction, from Table S1, read-out: Unbound plasma fraction (fu, plasma)): 0.204 | AEP enzymatic activity in the brain ([7]; acute P.O. 7.5 and 15 mg/kg, dose-dependent): substantially inhibited | Active AEP band intensity, hippocampus immunoblotting ([7]; acute P.O.): further suppressed | half-life [8]: > 8 h | IC50 [10]: 63 nM | hepatocyte CLint [11]: 22 µL/min/1e6 cells | half-life ([11]; read-out: Stability-Hepatocytes T1/2): 1.05 h
SMILES: CC(C)Nc1nnc(Nc2cc(CO)c(N3CCOCC3)c3nonc23)s1 [11a-isopropyl]
Aβ PET (18F-AV45) SUVR [1]: significantly decreasing the PET signals | Aβ42-induced AEP activation [4]: suppressed AEP activation in a dose-dependent manner | Aβ42 level in brain, ELISA [5]: significantly reduced | IC50 [9]: > 10000 nM
